pIC50: −log10 of the molar value. Like-named read-outs stand apart in the source and are kept apart here.
How the values were obtained:
[1] = system: MV4-11 cell; assay: MV4-11 cell proliferation assay (CellTiter-Glo); type: cell-based, human; settings: MV4-11 cells, 72 hours, read-out: IC50 inhibiting MV4-11 cell proliferation
Description: Test compounds were prepared in 100% DMSO and added to the cells to achieve final concentrations from 0.2 uM to […] (10 concentration points in 3 fold serial dilution). The culture plates were then incubated at 37 C in 5% CO2 for 72 hours.
After 72 hours, the cell morphology was observed under an inverted microscope. Cell viability was then quantified at room temp using a CellTiter-Glo assay (Promega G7571) following the manufacture's instruction. Briefly, a volume of 100 ul Celltiter-Glo reagenet was added to each well to induce cell lysis. After 10 min incubation at RT, a luminescent signal was produced by measuring the amount of ATP. The signal was directly proportional to the number of viable cells present in culture.

[2] = target: FLT3 (Homo sapiens (Human), UniProt P36888); assay: FLT3 kinase inhibition assay (Caliper mobility shift assay); type: biochemical; settings: 0.9 nM purified FLT3, 97 uM ATP, 28° C., 60 min; read-out: IC50 inhibiting the FLT3 kinase
Sequence of FLT3 (P36888 27-993): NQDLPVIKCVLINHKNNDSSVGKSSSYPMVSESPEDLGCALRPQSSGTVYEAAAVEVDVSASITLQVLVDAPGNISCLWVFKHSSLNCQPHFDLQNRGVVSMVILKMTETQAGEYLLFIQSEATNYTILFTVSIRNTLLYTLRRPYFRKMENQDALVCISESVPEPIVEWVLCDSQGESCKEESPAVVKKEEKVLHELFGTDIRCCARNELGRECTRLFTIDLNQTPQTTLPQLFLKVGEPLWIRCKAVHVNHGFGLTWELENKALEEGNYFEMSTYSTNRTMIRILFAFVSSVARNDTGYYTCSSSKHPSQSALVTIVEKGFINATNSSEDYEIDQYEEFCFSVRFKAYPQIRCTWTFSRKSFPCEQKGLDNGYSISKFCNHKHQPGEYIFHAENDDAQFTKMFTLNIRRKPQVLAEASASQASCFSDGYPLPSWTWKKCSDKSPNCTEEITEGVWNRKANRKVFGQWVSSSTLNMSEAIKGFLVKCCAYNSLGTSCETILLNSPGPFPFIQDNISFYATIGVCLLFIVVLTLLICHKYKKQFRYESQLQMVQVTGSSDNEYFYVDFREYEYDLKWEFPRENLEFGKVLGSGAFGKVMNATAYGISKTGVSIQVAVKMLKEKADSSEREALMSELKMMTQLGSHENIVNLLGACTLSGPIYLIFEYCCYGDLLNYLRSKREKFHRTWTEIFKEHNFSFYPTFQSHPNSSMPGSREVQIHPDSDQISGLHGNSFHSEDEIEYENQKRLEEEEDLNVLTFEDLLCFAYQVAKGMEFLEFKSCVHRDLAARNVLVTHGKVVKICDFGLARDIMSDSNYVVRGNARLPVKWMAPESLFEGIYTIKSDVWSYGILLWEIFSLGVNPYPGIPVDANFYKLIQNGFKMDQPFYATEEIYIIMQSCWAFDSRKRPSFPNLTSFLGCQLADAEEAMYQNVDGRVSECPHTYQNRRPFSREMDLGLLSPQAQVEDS
Description: The average of inhibitory rate of Flt3 kinase and IC50 was determined by a Caliper's mobility shift assay (MSA).
FLT3 is a receptor tyrosine kinase involved in survival and proliferation of leukemic cells. Constitutively activating FLT3 mutations has been found in about 30% of all patients with acute myeloid leukemia (AML). The tested compounds were screened for their ability to inhibit FLT3 kinase activity using Caliper's mobility shift assay (MSA). The assay uses a microfluidic chip to measure the conversion of a fluorescent peptide substrate to a phosphorylated product following separation by electrophoresis.
Data were collected on Caliper and converted into inhibition values. IC50 values were obtained using XLfit graphic program.

[3] = system: MV4-11 acute myeloid leukemia zenograft tumor model; assay: MV4-11 acute myeloid leukemia xenograft tumor model; type: in vivo, NOD/SCID female mice; settings: 3 mg/kg, po, qd, 22 days; tumor-bearing NOD/SCID mice
Description: Compound C (18 mg) in 22% 2-hydroxypropyl-β=cyclodextrin (60 ml), ultrasonic 15 min to dissolve, an average of 2.14 ml divided into each of the small bottle, reserved 22 bottles for experiment.
6-8 weeks NOD/SCID female mice (18-25 g) were used. Each mouse was inoculated subcutaneously at the right flank with MV4-11 tumor cells (1×10^7) in 0.1 ml of PBS/Matrigel (1:1) for tumor development. The treatments were started when the mean tumor size reached 188 mm^3. The animals were separated even as test and control group randomly, and each group is consisted of 6 tumor-bearing mice. The test articles were orally administered (2.14 ml) to the tumor-bearing mice once a day. The date of tumor cell inoculation is denoted as day 0. The tumor volume was measured every four days, and the animals were scarified at 22 days. Statistical analyses of difference in tumor volume among the groups were evaluated using a one-way ANOVA followed by individual comparisons using Games-Howell (equal variance not assumed).
All data were analyzed using SPSS 17.0. p<0.05 was considered to be statistically significant. The antitumor activities of compounds of disclose are calculated by the formula: T C %=TRTV/CRTV×100%. (TRTV: drug treated group RTV; CRTV: vehicle treated group RTV). Evaluation standard: T/C (%)>40% considered as not effective; T/C (%) 40% considered as effective with P<0.05.

| Compound | pIC50 [1] | pIC50 [2] | pIC50 ([1]; Homo sapiens) | T/C [3] [%] |
| --- | --- | --- | --- | --- |
| CN(C)CCNc1ccc2c(n1)sc1nc(-c3ccc(NC(=O)Nc4cc(C(C)(C)C)on4)cc3)cn12 [compound 89-1] | 10.52 | 8.00 |  |  |
| CNC1(CNc2ccc3c(n2)sc2nc(-c4ccc(NC(=O)Nc5cc(C(C)(C)C)on5)cc4)cn23)CC1 [compound 63-2] |  |  | 9.24 |  |
| CC(C)(C)c1cc(NC(=O)Nc2ccc(-c3cn4c(n3)sc3nc(OCC5(N)CC5)ccc34)cc2)no1 [compound 35-1] |  | 7.42 | 8.85 |  |
| CC(C)(C)c1cc(NC(=O)Nc2ccc(-c3cn4c(n3)sc3nc(OCC5CNC5)ccc34)cc2)no1 [compound 28-11] |  |  | 9.08 |  |
| CCN(CC)CCOc1ccc2c(n1)sc1nc(-c3ccc(NC(=O)Nc4cc(C(C)(C)C)on4)cc3)cn12 [compound 28-14] |  | 8.02 | 10.52 |  |
| CNC1(COc2ccc3c(c2)sc2cc(-c4ccc(NC(=O)Nc5cc(C(C)(C)C)on5)cc4)cn23)CC1 [compound 80] |  |  | 8.33 |  |
| CC(C)(C)c1cc(NC(=O)Nc2ccc(-c3cn4c(n3)sc3nc(NCC5(N)CC5)ccc34)cc2)no1 [compound 63-1] |  |  | 9.02 |  |
| CN1CCOC(COc2ccc3c(n2)sc2nc(-c4ccc(NC(=O)Nc5cc(C(C)(C)C)on5)cc4)cn23)C1 (centres unmarked) [compound 28-13] |  |  | 9.52 |  |
| CC(C)(C)c1cc(NC(=O)Nc2ccc(-c3cn4c(n3)sc3nc(N5CCNCC5)ncc34)cc2)no1 [compound 8-4] |  |  | 8.96 |  |
| CC(C)(C)c1cc(NC(=O)Nc2ccc(-c3cn4c(n3)sc3nc(NCCN5C[C@@H]6C[C@H]5CO6)ccc34)cc2)no1 [compound 89-4] | 10.10 | 7.55 |  |  |
| CC(C)(C)c1cc(NC(=O)Nc2ccc(-c3cn4c(n3)sc3nc(OCCN5CCOCC5)ccc34)cc2)no1 [compound 28-1] |  |  | 9.15 |  |
| CC(C)(C)c1cc(NC(=O)Nc2ccc(-c3cn4c(n3)sc3nc(OCC5(NS(C)(=O)=O)CC5)ccc34)cc2)no1 [compound 35-3] |  |  | 7.89 |  |
| CC(C)(C)c1cc(NC(=O)Nc2ccc(-c3cn4c(n3)sc3nc(OCCN5C[C@@H]6C[C@H]5CO6)ccc34)cc2)no1 [compound 28-15] |  | 7.17 | 10.30 |  |
| CC(=O)NC1(COc2ccc3c(n2)sc2nc(-c4ccc(NC(=O)Nc5cc(C(C)(C)C)on5)cc4)cn23)CC1 [compound 35-2] |  |  | 9.28 |  |
| CC(C)(C)c1cc(NC(=O)Nc2ccc(-c3cn4c(n3)sc3nc(OCCN5CCNCC5)ccc34)cc2)no1 [compound 28-3] |  | 7.47 | 9.40 |  |
| CN1CCC(COc2ccc3c(n2)sc2nc(-c4ccc(NC(=O)Nc5cc(C(C)(C)C)on5)cc4)cn23)CC1 [compound 28-10] |  | 7.89 | 9.52 |  |
| CN(C)CCOc1ccc2c(n1)sc1nc(-c3ccc(NC(=O)Nc4cc(C(C)(C)C)on4)cc3)cn12 [compound 28-2] |  | 7.74 | 9.70 |  |
| CN1C[C@@H]2C[C@H]1CN2CCOc1ccc2c(n1)sc1nc(-c3ccc(NC(=O)Nc4cc(C(C)(C)C)on4)cc3)cn12 [compound 28-8] |  | 7.96 | 9.70 |  |

| Compound | pIC50 [1] | pIC50 [2] | pIC50 ([1]; Homo sapiens) | T/C [3] [%] |
| --- | --- | --- | --- | --- |
| CC(C)(C)c1cc(NC(=O)Nc2ccc(-c3cn4c(n3)sc3nc(OCCN5C[C@@H]6C[C@H]5CN6)ccc34)cc2)no1 [compound 28-7] |  | 8.92 | 9.52 |  |
| CC(C)(C)c1cc(NC(=O)Nc2ccc(-c3cn4c(n3)sc3nc(OCCCN5CCOCC5)ccc34)cc2)no1 [compound 28-6] |  | 7.33 | 9.40 |  |
| CC(C)(C)c1cc(NC(=O)Nc2ccc(-c3cn4c(n3)sc3nc(OCC5CNCCO5)ccc34)cc2)no1 (centres unmarked) [compound 28-12] |  |  | 9.33 |  |
| CC(C)(C)c1cc(NC(=O)Nc2ccc(-c3cn4c(n3)sc3nc(N5CCC(N6CCOCC6)CC5)ncc34)cc2)no1 [compound 8-6] |  |  | 8.90 |  |
| CNC1(COc2ccc3c(n2)sc2nc(-c4ccc(NC(=O)Nc5cc(C(C)(C)C)on5)cc4)cn23)CC1 [compound 39-1] | 9.30 | 7.28 |  |  |
| CCN(CC)CCNc1ccc2c(n1)sc1nc(-c3ccc(NC(=O)Nc4cc(C(C)(C)C)on4)cc3)cn12 [compound 89-3] | 10.40 | 7.72 |  |  |
| CCN(CC)CCNc1ncc2c(n1)sc1nc(-c3ccc(NC(=O)Nc4cc(C(C)(C)C)on4)cc3)cn12 [Compound 97-2] |  |  | 9.38 |  |
| CC(C)(C)c1cc(NC(=O)Nc2ccc(-c3cn4c(n3)sc3nc(OCC5CCNCC5)ccc34)cc2)no1 [compound 28-9] |  | 7.96 | 9.52 |  |
| CN(C)CCNc1ncc2c(n1)sc1nc(-c3ccc(NC(=O)Nc4cc(C(C)(C)C)on4)cc3)cn12 [Compound 97-1] |  |  | 10.52 |  |
| CC(C)(C)c1cc(NC(=O)Nc2ccc(-c3cn4c(n3)sc3cc(OCCN5CCOCC5)ccc34)cc2)no1 [Quizartinib, reference compound] |  |  | 9.25 | 9 |
| CN(CCN1CCOCC1)c1ccc2c(n1)sc1nc(-c3ccc(NC(=O)Nc4cc(C(C)(C)C)on4)cc3)cn12 [compound 53-2] |  | 7.37 | 9.30 |  |
| CC(C)(C)c1cc(NC(=O)Nc2ccc(-c3cn4c(n3)sc3nc(OC[C@@H]5CCCN5)ccc34)cc2)no1 [compound 35-4] |  |  | 9.05 |  |
| CC(C)(C)c1cc(NC(=O)Nc2ccc(-c3cn4c(n3)sc3nc(N5CCOCC5)ncc34)cc2)no1 [compound 8-1] |  | 7.72 |  |  |
| CC(C)(C)c1cc(NC(=O)Nc2ccc(-c3cn4c(n3)sc3nc(N5CCOCC5)ccc34)cc2)no1 [compound 46] |  |  | 9.10 |  |
| CC(C)(C)c1cc(NC(=O)Nc2ccc(-c3cn4c(n3)sc3nc(NCCN5C[C@@H]6C[C@H]5CO6)ncc34)cc2)no1 [Compound 97-3] |  |  | 10.15 |  |
| CC(C)(C)c1cc(NC(=O)Nc2ccc(-c3cn4c(n3)sc3nc(N5CCC(N6CCOCC6)CC5)ccc34)cc2)no1 [compound 89-5] | 9.54 | 7.47 |  |  |
| CC(C)(C)c1cc(NC(=O)Nc2ccc(-c3cn4c(n3)sc3nc(NCCN5CCOCC5)ccc34)cc2)no1 [compound 53-1] |  | 7.54 | 9.70 |  |

From patent US9216997B2, “Tri-heterocyclic derivatives, preparation process and uses thereof” (SHANGHAI DE NOVO PHARMATECH CO LTD., priority 2011, dated 2015)
